Measurements taken from US11980209B2, “Consumables” (GIVAUDAN SA, priority 2007, dated 2024).

Tests used:
[1] = tested on: perceived sweetness (panelists); assay: Sweetness of HDG in a cola beverage (Example 14); format: in vivo, human; conditions: 20 ppm HDG in cola beverage sweetened with 7% sucrose
Source text: 20 ppm of HDG in a cola beverage sweetened with 7% sucrose was compared to control samples (cola without HDG and sweetened with 7 or 9% sucrose) by 9 panelists.
Panelists were instructed to taste and compare the samples in their sweetness intensity and profile.

[2] = tested on: perceived sweet taste (sweet sensitive panelists); assay: Ranking test with R-index, isointensity of 20 ppm HDG in 7% sucrose (Example 2b); format: in vivo, human; conditions: for R-index: critical values 37.11-62.89%
Source text: Panels consisted of 20 sweet sensitive subjects and samples were presented in 2 replications over 1 session. Panelists were presented with 7%, 8%, 9% and 10% sucrose solutions in water and a fifth sample of 20 ppm HDG in 7% sucrose in random order. Subjects were asked to rank the samples from low to high with respect to perceived sweet taste.

[3] = tested on: perceived sweet taste (panel); assay: Small panel ranking of 5-20 ppm HDG in water (Example 1d); format: in vivo, human; conditions: for Rank and taste: rank from least sweet to most sweet
Protocol: Further three small panel testings were performed. HDG samples were prepared in concentrations of 5 ppm, 10 ppm, 15 ppm, and 20 ppm in water. All the samples were coded (presented blind) and given to the panel in random order. The panel was also presented with sucrose solutions for comparison. The panel was asked to taste each sample and rank the samples from the least sweet to most sweet.

[4] = tested on: perceived sweet taste (sweet sensitive panelists); assay: Ranking test with R-index, isointensity of 15 and 20 ppm HDG in water (Example 1d); format: in vivo, human; conditions: for R-index: critical values 37.26-62.74%
Protocol: All examples were performed with sweet sensitive panelists able to detect at least 0.5% of sucrose or less, unless stated otherwise. The concentration detectable by the average consumer will be higher. The results were obtained using 20 panelists in two replications.
The sucrose concentration that tastes isointense in sweetness to HDG was determined using samples of 15 ppm and 20 ppm, each of which was directly compared to a sucrose sample (sucrose solutions of 0.5%, 1%, 1.5% and 2% concentration). Fifteen milliliters of each blinded sample was presented, at room temperature, in random order to 20 sweet sensitive panelists. In two replications (over 1 session), panelists were asked to rank the solutions, from least sweet to most sweet. The data was subjected to an R-index analysis.

[5] = tested on: perceived sweetness (sweet sensitive panelists); assay: Ranking test with R-index, sweetness enhancement by 10 ppm HDG in 7% sucrose (Example 12); format: in vivo, human; conditions: for R-index: critical value 37.1 to 62.9%
Protocol: The degree of sweetness enhancement of HDG was tested by determining the isointensity of the HDG-enhanced samples in comparison to sucrose samples. The samples contained 10 ppm HDG in 7% sucrose (HDG-10), and various sucrose solutions of different concentration in water (7%, 8%, 9%, and 10%).
15 ml of each sample was presented at room temperature and in random order to 20 sweet sensitive panelists. In two replications over 1 session, panelists were asked to compare and rank the samples from least sweet to most sweet. The critical value indicates the range wherein the difference of two samples is non-significant.

sucrose sweetness = conditions: NHDC at its sweetness detection threshold; Kroeze et al., Chem. Senses 2000; cited from earlier work
[6] = tested on: perceived sweet taste (sweet sensitive panelists); assay: Ranking test of 2 ppm NHDC in water (Example 7); format: in vivo, human
[7] = tested on: perceived sweetness (sweet sensitive panelists); assay: Determined isointensities to sucrose solutions of the optional enhancers; format: in vivo, human
Protocol: The sweetness detection threshold for trilobatin, HDG and optional enhancers were determined by the applicant.
The sweetness detection threshold varies somewhat in different individuals. For example, some individuals are able to detect the sweetness of sucrose in a very low concentration of 0.4%, others need at least 0.7%, or at least 1% or even more. All examples were performed with sweet sensitive panelists able to detect at least 0.5% of sucrose or less. The concentration detectable by the average consumer will therefore be higher.

[8] = tested on: perceived sweetness (sweet sensitive panelists); assay: Sweetness rating on generalized labeled magnitude scale (Example 6); format: in vivo, human; conditions: 1% sucrose in water, test run 3
Source text: Further, panelists were asked to rate each presented sample for sweetness using the generalized labeled magnitude scale (0=no sweetness; […] of any kind). The rating data was compared using the paired t-test.

[9] = 10 ppm HDG in 7% sucrose vs 7% sucrose
[10] = 10 ppm HDG in 7% sucrose vs 8% sucrose
[11] = 10 ppm HDG in 7% sucrose vs 9% sucrose
[12] = 10 ppm HDG in 7% sucrose vs 10% sucrose

COc1ccc(CCC(=O)c2c(O)cc(O[C@@H]3O[C@H](CO)[C@@H](O)[C@H](O)[C@H]3O)cc2O)cc1O [HDG, 1-[4-(-D-glucopyranosyloxy)-2,6-dihydroxyphenyl]-3-(3-hydroxy-4-methoxyphenyl)-1-propanone]
sweetness compared to 9% sucrose cola control [1]: not as sweet | sweetness compared to 7% sucrose cola control ([1]; all 9 panelists): significantly sweeter | taste profile ([1]; similar to the sucrose controls in sweetness onset and duration): non-lingering | added sucrose sweetness intensity ([2]; 20 ppm HDG in 7% sucrose): 1.5-2 ° Brix | R-index ([2]; 20 ppm HDG in 7% sucrose vs 7% sucrose): 94.8% | R-index ([2]; 20 ppm HDG in 7% sucrose vs 8% sucrose): 62.6% | R-index ([2]; 20 ppm HDG in 7% sucrose vs 9% sucrose): 46.0% | R-index ([2]; 20 ppm HDG in 7% sucrose vs 10% sucrose): 6.8% | sample sweetness (7% sucrose + 20 ppm HDG) ([2]; vs 7% sucrose solution): Sweeter | sample sweetness (7% sucrose + 20 ppm HDG) ([2]; vs 8% sucrose solution): Isosweet | sample sweetness (7% sucrose + 20 ppm HDG) ([2]; vs 9% sucrose solution): Isosweet | sample sweetness (7% sucrose + 20 ppm HDG) ([2]; vs 10% sucrose solution): Less sweet | isointensity to sucrose ([3]; 5 ppm HDG in water): 0% sucrose (water) | Rank and taste ([3]; 5 ppm HDG in water): 1 - not sweet | Rank and taste ([3]; 10 ppm HDG in water): 2 - very slightly sweet | Rank and taste ([3]; 15 ppm HDG in water): 3 - slightly sweet | isointensity to sucrose ([3]; 20 ppm HDG in water): 1 % sucrose | Rank and taste ([3]; 20 ppm HDG in water): 4 - sweet | sweetness threshold of HDG detected by sweet sensitive individuals ([3]; in water): about 10 ppm | R-index ([4]; 15 ppm HDG in water vs 0.5% sucrose): 85% | R-index ([4]; 15 ppm HDG in water vs 1.0% sucrose): 31% | R-index ([4]; 15 ppm HDG in water vs 1.5% sucrose): 10% | R-index ([4]; 15 ppm HDG in water vs 2.0% sucrose): 1% | sample sweetness (HDG, 15 ppm) ([4]; 15 ppm in water vs 0.5% sucrose solution): sweeter | sample sweetness (HDG, 15 ppm) ([4]; 15 ppm in water vs 1.0% sucrose solution): less sweet | sample sweetness (HDG, 15 ppm) ([4]; 15 ppm in water vs 1.5% sucrose solution): less sweet | sample sweetness (HDG, 15 ppm) ([4]; 15 ppm in water vs 2.0% sucrose solution): less sweet | R-index ([4]; 20 ppm HDG in water vs 0.5% sucrose): 92% | R-index ([4]; 20 ppm HDG in water vs 1.0% sucrose): 51% | R-index ([4]; 20 ppm HDG in water vs 1.5% sucrose): 33% | R-index ([4]; 20 ppm HDG in water vs 2.0% sucrose): 4% | sample sweetness (HDG, 20 ppm) ([4]; 20 ppm in water vs 0.5% sucrose solution): Sweeter | sample sweetness (HDG, 20 ppm) ([4]; 20 ppm in water vs 1.0% sucrose solution): Isosweet | sample sweetness (HDG, 20 ppm) ([4]; 20 ppm in water vs 1.5% sucrose solution): Less sweet | sample sweetness (HDG, 20 ppm) ([4]; 20 ppm in water vs 2.0% sucrose solution): Less sweet | added sucrose sweetness intensity ([5]; 10 ppm HDG in 7% sucrose): about 1 ° Brix | expected isointensity to sucrose assuming a merely additive effect ([5]; 10 ppm HDG in 7% sucrose): 7.5% | isointensity to sucrose ([5]; 10 ppm HDG in 7% sucrose): 8 % sucrose | sweetness HDG sample [5, 9]: sweeter | R-index [5, 9]: 75.2% | sweetness HDG sample [5, 10]: isosweet | R-index [5, 10]: 37.5% | sweetness HDG sample [5, 11]: less | R-index [5, 11]: 10.7% | sweetness HDG sample [5, 12]: less | R-index [5, 12]: 0.6%

COc1ccc(CCC(=O)c2c(O)cc(O[C@@H]3O[C@H](CO)[C@@H](O)[C@H](O)[C@H]3O[C@@H]3O[C@@H](C)[C@H](O)[C@@H](O)[C@H]3O)cc2O)cc1O [NHDC, Neohesperidin dihydrochalcone]
enhancement of sucrose sweetness (sucrose sweetness): does not enhance sucrose sweetness | isointensity to sucrose ([6]; 2 ppm NHDC in water): 0.5 % sucrose | NHDC sample sweetness ([6]; 2 ppm NHDC in water vs 0.5% sucrose solution): isosweet | NHDC sample sweetness ([6]; 2 ppm NHDC in water vs 1% sucrose solution): less sweet | R-index ([6]; 2 ppm NHDC in water vs 1% sucrose, critical values 35.39-64.61%): 5%

C[C@@H]1O[C@@H](O[C@H]2[C@H](Oc3cc(O)c(C(=O)CCc4ccc(O)cc4)c(O)c3)O[C@H](CO)[C@@H](O)[C@@H]2O)[C@H](O)[C@H](O)[C@H]1O [naringin dihydrochalcone, 1-[4-[[2-O-(6-Deoxy-alpha-L-mannopyranosyl)-beta-D-glucopyranosyl]oxy]-2,6-dihydroxyphenyl]-3-(4-hydroxyphenyl)-1-propanone]
isointensity to sucrose ([7]; 45 ppm naringin dihydrochalcone): 0.5 % sucrose | isointensity to sucrose ([7]; 60 ppm naringin dihydrochalcone): 1.25 % sucrose

C=C1C[C@@]23CC[C@H]4[C@@](C)(CCC[C@@]4(C)C(=O)O[C@@H]4O[C@H](CO)[C@@H](O)[C@H](O)[C@H]4O)[C@@H]2CC[C@]1(O[C@@H]1O[C@H](CO)[C@@H](O)[C@H](O[C@@H]2O[C@H](CO)[C@@H](O)[C@H](O)[C@H]2O)[C@H]1O[C@@H]1O[C@H](CO)[C@@H](O)[C@H](O)[C@H]1O)C3 [rebaudioside A, Rebaudioside A]
isointensity to sucrose ([7]; 20 ppm rebaudioside A): 0.75 % sucrose

C=C1C[C@@]23CC[C@H]4[C@@](C)(CCC[C@@]4(C)C(=O)O[C@@H]4O[C@H](CO)[C@@H](O)[C@H](O)[C@H]4O)[C@@H]2CC[C@]1(O[C@@H]1O[C@H](CO)[C@@H](O)[C@H](O)[C@H]1O[C@@H]1O[C@H](CO)[C@@H](O)[C@H](O)[C@H]1O)C3 [stevioside, Stevioside]
isointensity to sucrose ([7]; 30 ppm stevioside): 0.5 % sucrose | isointensity to sucrose ([7]; 40 ppm stevioside): 0.75 % sucrose

OC[C@H]1O[C@@](CO)(O[C@H]2O[C@H](CO)[C@@H](O)[C@H](O)[C@H]2O)[C@@H](O)[C@@H]1O [sucrose, alpha-D-glucopyranosyl-(1→2)-beta-D-fructofuranose]
sweetness rating, generalized labeled magnitude scale (0=no sweetness; 10=strongest imaginable sensation) [8]: 0.72 ± 0.06
